Data: paper PMC10444810, “Induction of open-form bile canaliculus formation by hepatocytes for evaluation of biliary drug excretion” (Communications Biology, 2023)
Values joined by “and” are separate entries in the source; they are usually repeats but may differ in a detail not shown here. Identical values can stand only once.

What was measured:
CYP2C19 = biological target: T1, CYP2C19 (Homo sapiens, UniProt P33261); assay: Metabolic assay, cocktail substrate method ((S)-mephenytoin to 4’-hydroxymephenytoin); assay type: in vitro ADME; settings: for Enzyme activity, Mean: mean of Well-1 to Well-4
T1 construct: host or cells: PXB-cells (icHep: JFC, HUM181001B; sandwich culture: JFC)
Protocol: (§1) The metabolic activity of icHep and sandwich-cultured PXB-cells was measured using the cocktail substrate method of drug-metabolizing enzymes. The components of the cocktail are summarized in Supplementary Table 1. Assays were initiated by treating cells with TB containing cocktail substrates. Time point of each substrate was set when a linear increase in its metabolite production was observed. Concentrations of metabolites produced in the medium were measured by liquid chromatography-mass spectrometry (LC-MS/MS).

CYP2B6 = biological target: T2, CYP2B6 (Homo sapiens, UniProt P20813); assay: Metabolic assay, cocktail substrate method (bupropion to hydroxybupropion); assay type: in vitro ADME; settings: for Enzyme activity, Mean: mean of Well-1 to Well-4
T2 construct: host or cells: PXB-cells (icHep: JFC, HUM181001B; sandwich culture: JFC)
T2 sequence (P20813 1-491): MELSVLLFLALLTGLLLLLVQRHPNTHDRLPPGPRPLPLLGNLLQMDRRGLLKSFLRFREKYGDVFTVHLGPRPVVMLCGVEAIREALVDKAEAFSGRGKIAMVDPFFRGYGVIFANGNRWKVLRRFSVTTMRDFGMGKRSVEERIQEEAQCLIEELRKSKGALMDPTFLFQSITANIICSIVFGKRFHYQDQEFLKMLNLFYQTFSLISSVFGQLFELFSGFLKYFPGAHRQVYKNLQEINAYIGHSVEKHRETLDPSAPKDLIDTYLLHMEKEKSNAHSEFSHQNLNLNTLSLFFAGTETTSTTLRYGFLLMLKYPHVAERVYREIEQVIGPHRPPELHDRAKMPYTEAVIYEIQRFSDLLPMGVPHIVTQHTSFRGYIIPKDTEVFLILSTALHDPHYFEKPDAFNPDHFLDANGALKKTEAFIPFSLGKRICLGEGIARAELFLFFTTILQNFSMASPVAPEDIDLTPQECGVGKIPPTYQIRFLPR
Protocol: as §1

[1] = PXB-cells (JFC), incubation time 45 min, single wells
[2] = PXB-cells (JFC), incubation time 60 min, single wells
[3] = PXB-cells (JFC), incubation time 90 min, single wells
[4] = icHep (HUM18100B), incubation time 15 min, single wells
[5] = icHep (HUM18100B), incubation time 30 min, single wells
[6] = icHep (HUM18100B), incubation time 45 min, single wells
[7] = icHep (HUM18100B), incubation time 60 min, single wells
[8] = icHep (HUM18100B), incubation time 90 min, single wells
[9] = icHep (HUM18100B), rate per single well
[10] = icHep (JFC), incubation time 15 min, single wells
[11] = icHep (JFC), incubation time 30 min, single wells
[12] = icHep (JFC), incubation time 45 min, single wells
[13] = icHep (JFC), incubation time 60 min, single wells
[14] = icHep (JFC), incubation time 90 min, single wells

T1 sequence (P33261 whole entry): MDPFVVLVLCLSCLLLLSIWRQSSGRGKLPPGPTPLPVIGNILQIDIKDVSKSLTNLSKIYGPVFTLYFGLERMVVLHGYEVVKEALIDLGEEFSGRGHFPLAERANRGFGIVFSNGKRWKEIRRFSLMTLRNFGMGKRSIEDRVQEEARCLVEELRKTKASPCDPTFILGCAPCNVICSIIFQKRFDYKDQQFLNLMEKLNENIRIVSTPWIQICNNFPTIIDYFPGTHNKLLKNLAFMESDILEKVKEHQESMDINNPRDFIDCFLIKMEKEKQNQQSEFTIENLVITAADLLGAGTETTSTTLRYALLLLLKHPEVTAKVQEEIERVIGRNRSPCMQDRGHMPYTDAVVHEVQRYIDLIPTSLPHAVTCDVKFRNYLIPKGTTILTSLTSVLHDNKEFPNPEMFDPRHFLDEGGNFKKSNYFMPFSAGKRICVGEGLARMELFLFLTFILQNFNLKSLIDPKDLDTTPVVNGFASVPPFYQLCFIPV

CC[C@@]1(c2ccc(O)cc2)NC(=O)N(C)C1=O [4'-hydroxymephenytoin]
Enzyme activity (CYP2C19; PXB-cells (JFC), incubation time 30 min, single wells): 56.4054 pmol/106 cells and 48.3281 pmol/106 cells and 62.3033 pmol/106 cells and 62.1838 pmol/106 cells | Enzyme activity (CYP2C19; [1]): 95.7591 pmol/106 cells and 93.7057 pmol/106 cells and 89.6102 pmol/106 cells and 94.8294 pmol/106 cells | Enzyme activity (CYP2C19; [2]): 136.786 pmol/106 cells and 120.497 pmol/106 cells and 123.843 pmol/106 cells and 115.035 pmol/106 cells | Enzyme activity (CYP2C19; [3]): 86.2332 pmol/106 cells and 112.727 pmol/106 cells and 89.0355 pmol/106 cells and 99.3009 pmol/106 cells | Enzyme activity, Mean (CYP2C19; PXB-cells (JFC)): 2.25 pmol/min/106 cells | Enzyme activity (CYP2C19; [4]): 50.5312 pmol/106 cells and 52.3394 pmol/106 cells and 56.2209 pmol/106 cells and 49.5383 pmol/106 cells | Enzyme activity (CYP2C19; [5]): 80.4095 pmol/106 cells and 100.579 pmol/106 cells and 91.6841 pmol/106 cells and 101.877 pmol/106 cells | Enzyme activity (CYP2C19; [6]): 142.367 pmol/106 cells and 129.072 pmol/106 cells and 120.304 pmol/106 cells and 122.788 pmol/106 cells | Enzyme activity (CYP2C19; [7]): 162.513 pmol/106 cells and 158.829 pmol/106 cells and 171.479 pmol/106 cells and 144.395 pmol/106 cells | Enzyme activity (CYP2C19; [8]): 188.684 pmol/106 cells and 187.153 pmol/106 cells and 171.43 pmol/106 cells and 198.851 pmol/106 cells | Enzyme activity, Mean (CYP2C19; icHep (HUM18100B)): 2.55 pmol/min/106 cells | Enzyme activity (CYP2C19; [9]): 3.06 pmol/min/106 cells and 2.56 pmol/min/106 cells and 2.14 pmol/min/106 cells and 2.44 pmol/min/106 cells | Enzyme activity (CYP2C19; [10]): 42.1708 pmol/106 cells and 39.5525 pmol/106 cells and 21.6896 pmol/106 cells and 37.3866 pmol/106 cells | Enzyme activity (CYP2C19; [11]): 65.4216 pmol/106 cells and 67.8652 pmol/106 cells and 74.7797 pmol/106 cells and 75.4174 pmol/106 cells | Enzyme activity (CYP2C19; [12]): 91.82 pmol/106 cells and 75.2152 pmol/106 cells and 103.29 pmol/106 cells and 100.957 pmol/106 cells | Enzyme activity (CYP2C19; [13]): 121.361 pmol/106 cells and 85.9573 pmol/106 cells and 140.345 pmol/106 cells and 108.521 pmol/106 cells | Enzyme activity (CYP2C19; [14]): 124.213 pmol/106 cells and 122.549 pmol/106 cells and 116.257 pmol/106 cells and 126.058 pmol/106 cells | Enzyme activity, Mean (CYP2C19; icHep (JFC)): 2.38 pmol/min/106 cells

C[C@H]1NC(C)(C)CO[C@]1(O)c1cccc(Cl)c1 [Hydroxybupropion]
Enzyme activity (CYP2B6; PXB-cells (JFC), incubation time 15 min, single wells): 28.7722 pmol/106 cells and 21.7302 pmol/106 cells and 27.8435 pmol/106 cells and 35.831 pmol/106 cells | Enzyme activity (CYP2B6; [1]): 59.3541 pmol/106 cells and 57.6847 pmol/106 cells and 69.4473 pmol/106 cells and 46.5889 pmol/106 cells | Enzyme activity (CYP2B6; [2]): 62.0864 pmol/106 cells and 73.8816 pmol/106 cells and 59.3241 pmol/106 cells and 58.6637 pmol/106 cells | Enzyme activity (CYP2B6; [3]): 76.5226 pmol/106 cells and 51.4054 pmol/106 cells and 51.8001 pmol/106 cells and 50.3819 pmol/106 cells | Enzyme activity, Mean (CYP2B6; PXB-cells (JFC)): 0.991 pmol/min/106 cells | Enzyme activity (CYP2B6; [4]): 25.5794 pmol/106 cells and 30.4047 pmol/106 cells and 24.7422 pmol/106 cells and 24.915 pmol/106 cells | Enzyme activity (CYP2B6; [5]): 35.9071 pmol/106 cells and 54.335 pmol/106 cells and 43.958 pmol/106 cells and 62.1937 pmol/106 cells | Enzyme activity (CYP2B6; [6]): 67.877 pmol/106 cells and 59.438 pmol/106 cells and 65.4881 pmol/106 cells and 59.5632 pmol/106 cells | Enzyme activity (CYP2B6; [7]): 76.2731 pmol/106 cells and 66.7099 pmol/106 cells and 66.2746 pmol/106 cells and 64.1847 pmol/106 cells | Enzyme activity (CYP2B6; [8]): 84.2201 pmol/106 cells and 81.8175 pmol/106 cells and 75.5651 pmol/106 cells and 70.6836 pmol/106 cells | Enzyme activity, Mean (CYP2B6; icHep (HUM18100B)): 1.22 pmol/min/106 cells | Enzyme activity (CYP2B6; [9]): 1.41 pmol/min/106 cells and 0.968 pmol/min/106 cells and 1.36 pmol/min/106 cells and 1.15 pmol/min/106 cells | Enzyme activity (CYP2B6; [10]): 26.9509 pmol/106 cells and 26.6361 pmol/106 cells and 28.1971 pmol/106 cells and 21.5678 pmol/106 cells | Enzyme activity (CYP2B6; [11]): 50.8052 pmol/106 cells and 52.8459 pmol/106 cells and 41.4458 pmol/106 cells and 41.1487 pmol/106 cells | Enzyme activity (CYP2B6; [12]): 61.1962 pmol/106 cells and 63.9863 pmol/106 cells and 63.4142 pmol/106 cells and 59.0445 pmol/106 cells | Enzyme activity (CYP2B6; [13]): 56.6821 pmol/106 cells and 56.5302 pmol/106 cells and 54.8514 pmol/106 cells and 60.04 pmol/106 cells | Enzyme activity (CYP2B6; [14]): 69.6732 pmol/106 cells and 73.6155 pmol/106 cells and 56.0547 pmol/106 cells and 49.9876 pmol/106 cells | Enzyme activity, Mean (CYP2B6; icHep (JFC)): 1.20 pmol/min/106 cells | Enzyme activity (CYP2B6; icHep (JFC), rate per single well): 1.14 pmol/min/106 cells and 1.25 pmol/min/106 cells and 1.17 pmol/min/106 cells
